{"source": "ChEMBL document CHEMBL1148992", "about": "“KB cell culture I. Role in discovery of antitumor agents from higher plants” (1982)", "key": {"[1]": {"system": "KB", "assay": "Cytotoxicity against human KB cells", "type": "functional", "settings": "read-out: ED50 (the source's name)"}, "[2]": {"system": "P388", "assay": "In vivo cytotoxicity against mouse P388 cells relative to control", "type": "functional"}}, "data": [{"smiles": "COc1ccc2[nH]c3c(C)c4ccncc4c(C)c3c2c1", "values": [{"measurement": "EC50", "setting": "[1]", "result": 8.7, "unit": "µg/mL"}]}, {"smiles": "COc1ccc2cc1Oc1ccc(cc1)C[C@H]1c3cc(c(OC)cc3CCN1C)Oc1c(OC)c(OC)cc3c1[C@@H](C2)N(C)CC3", "values": [{"measurement": "EC50", "setting": "[1]", "result": 10, "unit": "µg/mL"}]}, {"smiles": "COc1cc2c[n+](C)c3c4cc(OC)c(OC)cc4ccc3c2cc1OC", "values": [{"measurement": "T/C", "setting": "[2]", "result": 200, "unit": "%"}]}, {"smiles": "COc1ccc2cc1Oc1ccc(cc1)C[C@H]1c3cc(c(OC)cc3CCN1C)Oc1c(OC)c(OC)cc3c1C(C2)N(C)CC3", "note": "(mixture of isomers)", "values": [{"measurement": "EC50", "setting": "[1]", "result": 22, "unit": "µg/mL"}]}, {"smiles": "COc1ccc(C[C@H]2C(=O)N[C@@H](C)C(=O)N(C)[C@@H]3C(=O)N(C)[C@@H](Cc4ccc(O)c(c4)Oc4ccc(cc4)[C@@H]3O)C(=O)N[C@@H](C)C(=O)N[C@@H](C)C(=O)N2C)cc1", "note": "[BOUVARDIN]", "values": [{"measurement": "EC50", "setting": "[1]", "result": 8.8, "unit": "µg/mL"}]}, {"smiles": "COC(=O)[C@@]12OC[C@]34[C@H]([C@@H](O)[C@@H]1O)[C@@]1(C)CC(=O)C(O)=C(C)[C@@H]1C[C@H]3OC(=O)[C@H](OC(=O)/C=C(\\C)C(C)C)[C@@H]24", "note": "[BRUCEANTIN]", "values": [{"measurement": "EC50", "setting": "[1]", "result": 17, "unit": "µg/mL"}]}, {"smiles": "CC[C@@]1(O)C(=O)OCc2c1cc1n(c2=O)Cc2cc3ccccc3nc2-1", "note": "[CAMPTOTHECIN]", "values": [{"measurement": "EC50", "setting": "[1]", "result": 2.3, "unit": "µg/mL"}]}, {"smiles": "COc1cc2c(c(OC)c1OC)-c1ccc(OC)c(=O)cc1[C@@H](NC(C)=O)CC2", "note": "[COLCHICINE]", "values": [{"measurement": "EC50", "setting": "[1]", "result": 0.23, "unit": "µg/mL"}]}, {"smiles": "CN[C@H]1CCc2cc(OC)c(OC)c(OC)c2-c2ccc(OC)c(=O)cc21", "note": "[DEMECOLCINE]", "values": [{"measurement": "EC50", "setting": "[1]", "result": "< 0.25", "unit": "µg/mL"}]}, {"smiles": "Cc1c2ccncc2c(C)c2c1[nH]c1ccccc12", "note": "[ELLIPTECINE]", "values": [{"measurement": "EC50", "setting": "[1]", "result": 0.36, "unit": "µg/mL"}]}, {"smiles": "CC[C@H]1CN2CCc3cc(OC)c(OC)cc3[C@@H]2C[C@@H]1C[C@H]1NCCc2cc(OC)c(OC)cc21", "note": "[EMETINE]", "values": [{"measurement": "EC50", "setting": "[1]", "result": "< 1", "unit": "µg/mL"}]}, {"smiles": "COc1cc2c(ccc3c4cc(OC)c(OC)cc4c[n+](C)c23)cc1O.[Cl-]", "note": "[FAGARONINE]", "values": [{"measurement": "T/C", "setting": "[2]", "result": 270, "unit": "%"}]}, {"smiles": "Cc1cc2c(C(C)C)c(O)c(O)c(C=O)c2c(O)c1-c1c(C)cc2c(C(C)C)c(O)c(O)c(C=O)c2c1O", "note": "[GOSSYPOL]", "values": [{"measurement": "T/C", "setting": "[2]", "result": 150, "unit": "%"}]}, {"smiles": "CC(=O)O[C@H]1C(=O)O[C@@H]2C[C@H]3C(C)=CC(=O)[C@@H](O)[C@]3(C)[C@H]3[C@]4(O)OC[C@]32[C@@H]1[C@@H](C)[C@H]4O", "note": "[HOLACANTHONE]", "values": [{"measurement": "EC50", "setting": "[1]", "result": 6.8, "unit": "µg/mL"}]}, {"smiles": "CC(C)[C@](O)(C(=O)OCC1=CC[N+]2([O-])CC[C@@H](O)[C@@H]12)[C@H](C)O", "note": "(stereo partly specified) [INDICINE N-OXIDE]", "values": [{"measurement": "T/C", "setting": "[2]", "result": 262, "unit": "%"}]}, {"smiles": "COc1cc2cc(c1Cl)N(C)C(=O)C[C@H](OC(=O)[C@H](C)N(C)C(C)=O)[C@]1(C)O[C@H]1[C@H](C)[C@@H]1C[C@@](O)(NC(=O)O1)[C@H](OC)/C=C/C=C(\\C)C2", "note": "[MAYTANSINE]", "values": [{"measurement": "EC50", "setting": "[1]", "result": 0.51, "unit": "µg/mL"}]}, {"smiles": "C[C@H]1C(=O)O[C@@H]2CCN3CC=C(COC(=O)[C@](C)(O)[C@]1(C)O)[C@H]23", "note": "[MONOCROTALINE]", "values": [{"measurement": "EC50", "setting": "[1]", "result": "> 100", "unit": "µg/mL"}]}, {"smiles": "COc1cc2c[n+](C)c3c4cc5c(cc4ccc3c2cc1OC)OCO5.[Cl-]", "note": "[NITIDINE CHLORIDE]", "values": [{"measurement": "EC50", "setting": "[1]", "result": 4.3, "unit": "µg/mL"}]}, {"smiles": "COC(=O)C[C@](O)(CCCC(C)(C)O)C(=O)O[C@@H]1C(OC)=C[C@]23CCCN2CCc2cc4c(cc2[C@H]13)OCO4", "note": "[OMACETAXINE MEPESUCCINATE]", "values": [{"measurement": "EC50", "setting": "[1]", "result": 3.9, "unit": "µg/mL"}]}, {"smiles": "CC(=O)O[C@H]1C(=O)[C@@]2(C)[C@H]([C@H](OC(=O)c3ccccc3)[C@]3(O)C[C@H](OC(=O)[C@H](O)[C@@H](NC(=O)c4ccccc4)c4ccccc4)C(C)=C1C3(C)C)[C@]1(OC(C)=O)CO[C@@H]1C[C@@H]2O", "note": "[PACLITAXEL]", "values": [{"measurement": "EC50", "setting": "[1]", "result": 8.9, "unit": "µg/mL"}]}, {"smiles": "COc1cc([C@@H]2c3cc4c(cc3[C@H](O)[C@H]3COC(=O)[C@H]23)OCO4)cc(OC)c1OC", "note": "[PODOFILOX]", "values": [{"measurement": "EC50", "setting": "[1]", "result": "< 1", "unit": "µg/mL"}]}, {"smiles": "COc1cc(C[C@H]2c3cc(OC)c(OC)cc3CCN2C)c(Oc2cc3c(cc2OC)-c2c(OC)c(OC)cc4c2[C@H](C3)N(C)CC4)cc1OC", "note": "[THALICARPINE]", "values": [{"measurement": "EC50", "setting": "[1]", "result": 3.7, "unit": "µg/mL"}]}, {"smiles": "CC(C)[C@]12O[C@H]1[C@@H]1O[C@]13[C@]1(O[C@H]1C[C@H]1C4=C(C(=O)OC4)[C@@H](O)C[C@@]13C)[C@@H]2O", "note": "[TRIPDIOLIDE]", "values": [{"measurement": "EC50", "setting": "[1]", "result": 2.8, "unit": "µg/mL"}]}, {"smiles": "CC(C)[C@]12O[C@H]1[C@@H]1O[C@]13[C@]1(O[C@H]1C[C@H]1C4=C(CC[C@@]13C)C(=O)OC4)[C@@H]2O", "note": "[TRIPTOLIDE]", "values": [{"measurement": "EC50", "setting": "[1]", "result": 2.6, "unit": "µg/mL"}]}, {"smiles": "COc1cc2c3c(c4ccc(OC)c(OC)c4c2cc1OC)CN1CCC[C@@H]1C3", "note": "[TYLOCREBRINE]", "values": [{"measurement": "EC50", "setting": "[1]", "result": 0.013, "unit": "µg/mL"}]}, {"smiles": "CC[C@]1(O)C[C@H]2CN(CCc3c([nH]c4ccccc34)[C@@](C(=O)OC)(c3cc4c(cc3OC)N(C=O)[C@H]3[C@@](O)(C(=O)OC)[C@H](OC(C)=O)[C@]5(CC)C=CCN6CC[C@]43[C@@H]65)C2)C1", "note": "[VINCRISTINE]", "values": [{"measurement": "EC50", "setting": "[1]", "result": 1.3, "unit": "µg/mL"}]}]}
